Tests used:
[1] = Superoxide scavenging activity, adenochrome method; format: biochemical; conditions: 50 ug/ml each; absorbance at 480 nm (FIG. 1)
From the text: From the change of the slope, we can estimate the activity of scavenging action.

[2] = Anti-oxidant activity and protection from ischemic trauma (summary statement)
[3] = test system: lipid peroxidation (TBAR) in rat head/brain homogenate; experiment: Inhibition of TBAR production (lipid peroxidation) in ischemic rat brain homogenate, drug added in vitro; format: biochemical; conditions: added in vitro before exposure to air (FIG. 3, FIG. 4)
From the text: (A) When cell membranes are exposed to ischemic or hypoxic insult, lipid peroxidation takes place. The degree of peroxidation can be measured by the production of thiobarbiturate reactive substances (TBAR). We have developed a simple assay method; we decapitate the rat and keep the head under a hypoxic condition for thirty minutes at 37 degrees and then homogenize it, then expose the homogenate to air for sixty minutes and measure the production of TBAR.

brain ischemia = experiment: Survival rate after global brain ischemia; format: in vivo, Sprague-Dawley rats; conditions: 9 mg/kg; OC-5186 injected I.P. thirty minutes prior to ischemia; control 8 out of 8 died within 2 days
Method: Adult, male Sprague-Dawley rats, weighing 300 to 350 grams, were used to prepare global ischemia. Anesthesia was induced and maintained with forane in 70% nitrous oxide-30% oxygen. After trachea was intubated, anesthesia was maintained using a ventilator. Both common carotid arteries were exposed and occluded by microaneurysmal clips. Then 12 to 14 ml of blood was withdrawn from the tail vein to bring the blood pressure to 30 mm Hg, which caused global ischemia. After twenty minutes of ischemia, blood was reinfused, clips were removed to induce recirculation. After twenty minutes of recirculation, the rat was decapitated, the brain was removed in ice-cold saline and then homogenized for TBAR measurement and spin trap measurement. For the measurement of survival rate, the wound was sutured and the animal recovered. The animal was returned to its cage. They were then observed for the survival rate. […] In this experiment, the brain was homogenized in the presence of 50 mM tert-butyl-(alpha)-phenylnitrone and the homogenate was introduced to electron spin resonance spectrophotometer.
In control experiment, where no drug was introduced, 8 out of 8 animals died within 2 days. […] Ascorbic acid (9 mg/kg) had no effect.

[4] = test system: FCR-3 strain P. falciparum; experiment: Growth inhibition of P. falciparum in in vitro culture; format: cell-based; conditions: 50 ug/ml, forty-eight hours
Method: The FCR-3 strain P. falciparum was used. Blood-stage parasites were cultured in RPMI-1640 (GIBCO Laboratories, Chagrin Falls, Ohio) in 96 well flat bottomed plates (Costar; Cambridge, Mass.) using the candle jar method described by Jensen and Trager (J. Parasitology 63:883,1977) and modified by Grun and Weidanz (J. Parasitology 73:384, 1987). Parasitemia was estimated on GIEMSA stained films of cultures. For drug administration, desired amounts of chemicals were added to an individual wells of 96 well plates. Forty-eight hours later, parasitemia was estimated and the degree of growth inhibition was determined.

sickle red blood cells = experiment: Formation of irreversibly sickled cells upon sickling-unsickling cycling in vitro; format: cell-based; conditions: 10 ug/ml
From the text: The inventor previously developed the method to produce irreversibly sickled cells (ISC, which are irreversibly denatured sickle cells) by exposing sickle red blood cells to a repeated sickling-unsickling cycling in vitro. He used this system to determine the efficacy of drugs in protecting cell membranes (Ohnishi, Br. J. Haematol. 55:665-671, 1983; Ohnishi et al. Biochim. Biophys. Acta 886:119-129, 1986). […] These heavy cells were collected, the amount measured, and the percentage of production calculated.

[5] = test system: Ehrlich's ascites tumor (EAT); experiment: Anti-cancer activity, Ehrlich's ascites tumor (EAT) model; format: in vivo, mice; conditions: 5-FU 20 mg/kg/day
Method: (§1) We used two mice models (Tomomatsu, Morita, Nagai, Shiwaku, Ichiki and Yonoki: Acta Med. Univ. Kagoshima. 17:99, 1975), i.e., (a) Ehrlich's ascites tumor (EAT) model and (b) a solid tumor model in which EAT cells were innoculated subcutaneously. In (a), 10^7 tumor cells were injected I.P. in a mouse with the body weight of 20 g. In (b), the same amount of tumor cells were injected subcutaneously in a mouse of similar weight. After 21 days, we measured several parameters: (i) the change of body weight; (ii) average time to their death, from which we measure extension of life span, and (iii) survival rate.
In the ascites tumor model, an increase of body weight is related to the increase in ascites. When the animal dies, we collect the ascites fluid and measure the number of tumor cells found in the ascites.
(§2) In the solid tumor model, we measured the extension of the life span and the survival rate. […] In the Experiment 1, from day 4 until day 13 (for ten days), anti-cancer drugs were administered. […] In the combination therapy, both drugs were administered simultaneously at their respective doses. […] With the 5-FU, they died in an average of 20.3 days. […] In the tumor model, similar tendency was observed.
(§3) In the Experiment 2, the amount of the oligomer was cut down to 1 mg/kg/day to see whether we could still observe anti-cancer activity.

mice = experiment: Reduction of toxic side-effect of 5-FU by OC-5186 (Experiment 2); format: in vivo
Method: as §3

solid tumor (EAT cells) = experiment: Anti-cancer activity, solid tumor model (EAT cells inoculated subcutaneously); format: in vivo, mice; conditions: 5-FU 20 mg/kg/day
Method: as §1, §2, §3

## CCCCC[C@H](O)/C=C/C1=C(C/C=C\CCCC(=O)OC[C@H](O)[C@H]2OC(=O)C(O)=C2O)C(=O)CC1 [OC-5181]
[1]
  superoxide-induced adenochrome formation (slope of the curve): the slope of the curve decreased
[2]
  anti-oxidant activity: strong anti-oxidant activity
[3]
  inhibition of TBAR production / antioxidant activity in vitro: antioxidant activity comparable to free acid type prostaglandin oligomers, OC-2186

## O=C1O[C@H]([C@@H](O)CO)C(O)=C1O [Ascorbic acid]
Brain ischemia
  survival after ischemia: had no effect
[4]
  inhibition of growth of P. falciparum (in words): did not inhibit the growth
Sickle red blood cells
  inhibition of formation of irreversibly denatured cells (in words): did not inhibit the formation

## O=c1[nH]cc(F)c(=O)[nH]1 [5-FU, 5-fluorouracil]
[5]; Experiment 1, day 4 to day 13, OC-5186 10 mg/kg/day, combination at respective doses, control 25%
  21 day survival, EAT model: 40%
[5]; Experiment 1, day 4 to day 13, OC-5186 10 mg/kg/day, combination at respective doses, control 17.0 days
  Average survival, EAT model: 20.3 days
[5]; Experiment 2, 23 days, OC-5186 1 mg/kg/day, combination, control 0%
  21 day survival, EAT model: 40%
[5]; Experiment 2, 23 days, OC-5186 1 mg/kg/day, combination, control 15.3 days
  Average survival, EAT model: 20.3 days
mice; administered for 23 days
  survival of chemotherapy / toxicity: all animals die if it is administered for 23 days
mice; without OC-5186
  tolerated duration of 5-FU administration without OC-5186: ≤ 10 days
Solid tumor (EAT cells); Experiment 1, day 4 to day 13, OC-5186 10 mg/kg/day, combination at respective doses, control 1.2 g
  Solid tumor weight (on 21 days): 0.70 g
Solid tumor (EAT cells); Experiment 2, 23 days, OC-5186 1 mg/kg/day, combination, control 25%
  21 day surv., solid tumor model: 40%
Solid tumor (EAT cells); Experiment 2, 23 days, OC-5186 1 mg/kg/day, combination, control 23.2 days
  Av. Surv., solid tumor model: 26 days

Source: US5114972A, “Synthesis and uses of new ascorbic acid derivatives which have anti-oxidant and anti-cancer activities” (priority 1990, dated 1992)
